These results are taken from patent US20250215030A1, “STAT MODULATORS AND USES THEREOF” (Recludix Pharma, Inc., priority 2022, published 2025).

Like-named read-outs stand apart in the source and are kept apart here. Where only a bound is given, the exact number is not on record here.

One assay concerns the target T1, pSTAT3 (pY705-STAT3) (Homo sapiens, UniProt P40763).
T1 construct: host or cells: cryopreserved PBMC
The experiment in a line: MSD-pSTAT-PBMC Assay (pSTAT3, IL-6 stimulated). It counts as cell-based. An excerpt:
Cryopreserved Peripheral Blood Mononuclear Cells (PBMC) are from AllCells. Recombinant Human IL-4 and IL-6 are from Peprotech. Mouse monoclonal anti-STAT3 antibody, rabbit monoclonal anti-pY705-STAT3 antibody, rabbit monoclonal Anti-pY641-STAT6 antibody, and lysis buffer are from Cell Signaling Technology (CST). Mouse monoclonal anti-STAT6 antibody is from BioLegend. Assay plates, blocker, and anti-rabbit secondary antibody are from Meso Scale Discovery (MSD).
Cryopreserved PBMCs were thawed out and allowed to recover overnight in IMDM+10% heat-inactivated FBS prior to plating 50,000 (STAT3) or 25,000 (STAT6) cells per well in 96-well U-bottom tissue culture plates. Cells were treated with compound for 3 hrs, then stimulated with 10 ng/mL IL-6 (STAT3) or 1 ng/mL IL-4 (STAT6) for 10 min. Cells were then spun down and washed with ice-cold PBS prior to lysing the cell pellet with 1× lysis buffer (CST) with 1× HALT protease and phosphatase inhibitor cocktail (Thermo). Lysates were transferred to and incubated overnight at 4° C. with shaking in QuickPlex 96-well high bind assay plates (MSD) pre-coated overnight with 30 μL per well of 0.6 μg/mL mouse monoclonal anti-STAT3 antibody (STAT3) or 2 μg/mL mouse monoclonal anti-STAT6 antibody (STAT6) in 1×PBS, and pre-blocked for 1 hour with 3% Blocker-A (MSD). Captured protein in the assay plates were then washed and probed with 25 μL per well of 0.25 μg/ml rabbit monoclonal anti-pY705-STAT3 antibody (STAT3) or 0.18 μg/ml rabbit monoclonal Anti-pY641-STAT6 antibody (STAT6) in 1% Blocker-A for 1 hour at room temperature with shaking, then washed and probed with 25 ul per well of 1 ug/mi Sulfo-TAG Labeled Goat Anti-Rabbit Antibody (MSD) in 1% Blocker-A for 1 hour at room temperature with shaking. Assay plates were then washed and 150 μL of 1× Read Buffer-T (MSD) was added to each well prior to reading on an SQ120 MSD Plate Reader. Assay signal from each sample was subtracted by the signal from unstimulated control wells and normalized to DMSO control wells. IC50 values were calculated using Graph Pad Prism Dose-Response Nonlinear Regression with variable slope. For both pSTAT3 and pSTAT6 A=≤100 nM; B=>100-1000 nM; C=>1000-3000 nM; and D=>3 μM.

Assay [1] concerns the target T2, Recombinant STAT3 protein (STAT3(G127-I722)) (Homo sapiens, UniProt P40763).
T2 construct: STAT3(G127-I722)
The experiment in a line: STAT3 Fluorescence Polarization (FP) Assay. In kind it is binding. The settings on record: STAT3(G127-I722) 25 nM, probe 5-FAM-GpYLPQTV-NH2 2 nM, 45-minute incubation. The method in brief: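 Serially diluted compounds (1% DMSO) were mixed with 2 nM fluorescent phosphotyrosine peptide and 25 nM STAT3 construct G127-I722, pH 7.4, incubated 45 min at room temperature. IC50 values from fitted polarization curves are reported as categories A (≤100 nM), B, C, D (>10 μM).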
(In general: In fluorescence polarisation assays a small probe gives low polarisation when free and higher when bound to something large.)

In assay [2] the target is T3, Recombinant STAT6 protein (STAT6(W123-T658)) (Homo sapiens, UniProt P42226).
T3 construct: STAT6(W123-T658)
T3 sequence (P42226 123-658): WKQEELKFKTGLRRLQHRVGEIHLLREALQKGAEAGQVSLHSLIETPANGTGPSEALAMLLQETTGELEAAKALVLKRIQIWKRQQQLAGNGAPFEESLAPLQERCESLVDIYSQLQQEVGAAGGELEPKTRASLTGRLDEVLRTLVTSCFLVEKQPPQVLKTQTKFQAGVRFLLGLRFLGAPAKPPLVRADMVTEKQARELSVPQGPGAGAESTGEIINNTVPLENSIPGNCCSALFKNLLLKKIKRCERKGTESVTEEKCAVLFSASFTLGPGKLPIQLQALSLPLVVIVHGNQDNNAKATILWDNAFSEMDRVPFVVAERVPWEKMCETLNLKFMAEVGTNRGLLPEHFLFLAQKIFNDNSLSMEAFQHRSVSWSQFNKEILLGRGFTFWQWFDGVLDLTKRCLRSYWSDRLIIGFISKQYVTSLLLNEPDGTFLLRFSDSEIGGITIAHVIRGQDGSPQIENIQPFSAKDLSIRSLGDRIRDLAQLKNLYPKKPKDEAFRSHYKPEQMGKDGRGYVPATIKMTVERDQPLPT
The experiment in a line: STAT6 Fluorescence Polarization (FP) Assay. The settings on record: STAT6(W123-T658) 250 nM, probe 5-FAM-ApYKPFQDLI-NH2 2 nM, 45-minute incubation. In kind it is binding. The method in brief: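 Competitive displacement of a fluorescent phosphotyrosine peptide (2 nM) from recombinant STAT6 W123-T658 (250 nM), 45 min at room temperature in 10 mM HEPES pH 7.4, 50 mM NaCl, 2 mM DTT. mP fitted against log compound for IC50, grouped A (≤300 nM) to D (>30 μM).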

[3] abbreviates: PBMC, compound 3 hrs, then 10 ng/mL IL-6 for 10 min, MSD pY705-STAT3, read-out: pSTAT3.

T1 sequence (P40763 whole entry): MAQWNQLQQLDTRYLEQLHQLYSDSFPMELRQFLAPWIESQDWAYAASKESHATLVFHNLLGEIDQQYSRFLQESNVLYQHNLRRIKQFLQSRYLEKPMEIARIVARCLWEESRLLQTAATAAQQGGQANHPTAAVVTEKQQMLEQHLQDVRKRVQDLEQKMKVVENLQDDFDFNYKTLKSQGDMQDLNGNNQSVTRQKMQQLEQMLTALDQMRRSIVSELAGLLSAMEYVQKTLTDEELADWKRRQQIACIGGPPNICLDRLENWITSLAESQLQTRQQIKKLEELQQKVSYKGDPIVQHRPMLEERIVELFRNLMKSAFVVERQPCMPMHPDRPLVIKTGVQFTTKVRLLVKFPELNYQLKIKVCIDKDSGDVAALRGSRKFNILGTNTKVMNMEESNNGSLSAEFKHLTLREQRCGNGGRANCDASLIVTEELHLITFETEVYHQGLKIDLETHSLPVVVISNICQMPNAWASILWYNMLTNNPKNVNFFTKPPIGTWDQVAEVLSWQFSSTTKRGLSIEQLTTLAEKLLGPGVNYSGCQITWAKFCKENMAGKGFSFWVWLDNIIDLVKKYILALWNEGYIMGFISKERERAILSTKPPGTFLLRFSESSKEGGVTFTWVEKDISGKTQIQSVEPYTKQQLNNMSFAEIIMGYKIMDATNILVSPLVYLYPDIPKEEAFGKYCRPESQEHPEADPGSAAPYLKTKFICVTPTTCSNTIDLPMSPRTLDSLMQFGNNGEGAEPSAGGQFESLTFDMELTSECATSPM
T2 sequence (P40763 127-722, species assumed): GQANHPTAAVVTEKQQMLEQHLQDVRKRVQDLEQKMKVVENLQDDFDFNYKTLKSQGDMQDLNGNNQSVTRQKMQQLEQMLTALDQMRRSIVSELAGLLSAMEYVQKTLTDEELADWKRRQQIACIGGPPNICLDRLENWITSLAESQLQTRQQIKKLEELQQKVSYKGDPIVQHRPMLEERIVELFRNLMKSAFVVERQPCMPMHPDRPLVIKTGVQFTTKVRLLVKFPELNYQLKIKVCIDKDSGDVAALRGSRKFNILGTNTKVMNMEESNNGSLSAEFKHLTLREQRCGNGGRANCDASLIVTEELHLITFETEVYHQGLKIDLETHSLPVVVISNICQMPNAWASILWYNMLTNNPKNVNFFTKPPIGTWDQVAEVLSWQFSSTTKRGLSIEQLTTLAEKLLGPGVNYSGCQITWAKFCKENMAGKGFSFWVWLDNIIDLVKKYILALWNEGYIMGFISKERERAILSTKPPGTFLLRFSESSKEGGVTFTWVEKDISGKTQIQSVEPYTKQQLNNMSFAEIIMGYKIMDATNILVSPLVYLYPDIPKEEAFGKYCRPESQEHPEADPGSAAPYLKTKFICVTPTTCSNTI

`CCCOC(=O)[C@H](C)NP(=O)(Oc1ccccc1)C(F)c1ccc2sc(C(=O)N[C@H]3C[C@@H]4C[C@@H]4C[C@H]4CC[C@@H](C(=O)N5CC(c6cnccc6N6CCC6)C5)N4C3=O)cc2c1` (single isomer, unassigned) [Compound 426] came in with an IC50 against pSTAT3 (pY705-STAT3) of less than 100 nM. Turning to `CCCOC(=O)[C@H](C)N[P@](=O)(Oc1ccccc1)[C@@H](F)c1ccc2sc(C(=O)N[C@H]3C[C@@H]4C[C@@H]4C[C@H]4CC[C@@H](C(=O)N5C[C@H](c6cccnc6)[C@@H](C#N)C56CC6)N4C3=O)cc2c1` (single isomer, unassigned) [Compound 430], the IC50 at pSTAT3 (pY705-STAT3) (setting [3]) was greater than 3000 nM.

On pSTAT3 (pY705-STAT3), `CCCOC(=O)[C@H](C)N[P@@](=O)(Oc1ccccc1)[C@@H](F)c1ccc2sc(C(=O)N[C@H]3C[C@@H]4C[C@@H]4C[C@H]4CC[C@@H](C(=O)N5C[C@H](c6cccnc6)[C@@H](C#N)C56CC6)N4C3=O)cc2c1` (single isomer, unassigned) [Compound 431] had an IC50 greater than 3000 nM. As to `CCCOC(=O)[C@H](C)N[P@@](=O)(Oc1ccccc1)[C@@H](F)c1ccc2sc(C(=O)N[C@H]3C[C@@H]4C[C@@H]4C[C@H]4CC[C@@H](C(=O)N5C[C@@H](c6cnccc6N(C)C)CC56CC6)N4C3=O)cc2c1` (single isomer, unassigned) [Compound 432], on pSTAT3 (pY705-STAT3) (setting [3]), the IC50 is less than 100 nM. With `CCCOC(=O)[C@H](C)N[P@@](=O)(Oc1ccccc1)[C@@H](F)c1ccc2sc(C(=O)N[C@H]3C[C@@H]4C[C@@H]4C[C@H]4CC[C@@H](C(=O)N5C[C@H](c6cnccc6N(C)C)CC56CC6)N4C3=O)cc2c1` (single isomer, unassigned) [Compound 434], the IC50 at pSTAT3 (pY705-STAT3) was less than 100 nM. For `CC(C)OC(=O)[C@H](C)N[P@@](=O)(Cc1ccc2sc(C(=O)N[C@H]3C[C@@H]4C[C@@H]4C[C@H]4CC[C@@H](C(=O)N5CC(C(=O)N6CCOCC6)C5)N4C3=O)cc2c1)Oc1ccccc1` (single isomer, unassigned) [Example 5], the IC50 on pSTAT3 (pY705-STAT3) (setting [3]) lay in the range of 1000 to 3000 nM.

For `CO[C@@H]1CCN(c2ccncc2C2CN(C(=O)[C@@H]3CC[C@@H]4C[C@H]5C[C@H]5C[C@H](NC(=O)c5cc6cc([C@@H](F)P(=O)(O)O)ccc6s5)C(=O)N43)C2)C1` [Example 422, ((S)-fluoro(2-(((3S,6S,7aS,8aR,9aR)-3-(3-(4-((R)-3-methoxypyrrolidin-1-yl)pyridin-3-yl)azetidine-1-carbonyl)-5-oxodecahydro-1H-cyclopropa[d]pyrrolo[1,2-a]azocin-6-yl)carbamoyl)benzo[b]thiophen-5-yl)methyl)phosphonic acid], the IC50 was less than 100 nM in assay [1] and 3000 to 30000 nM in assay [2]. For the compound `COCC1(F)CN(c2ccncc2C2CN(C(=O)[C@@H]3CC[C@@H]4C[C@H]5C[C@H]5C[C@H](NC(=O)c5cc6cc([C@@H](F)P(=O)(O)O)ccc6s5)C(=O)N43)C2)C1` [Example 425, ((S)-fluoro(2-(((3S,6S,7aS,8aR,9aR)-3-(3-(4-(3-fluoro-3-(methoxymethyl)azetidin-1-yl)pyridin-3-yl)azetidine-1-carbonyl)-5-oxodecahydro-1H-cyclopropa[d]pyrrolo[1,2-a]azocin-6-yl)carbamoyl)benzo[b]thiophen-5-yl)methyl)phosphonic acid], the IC50 in assay [1] was less than 100 nM; in assay [2], greater than 30000 nM. Take `Cn1ccc2cncc(C3CN(C(=O)[C@@H]4CC[C@@H]5C[C@H]6C[C@H]6C[C@H](NC(=O)c6cc7cc([C@@H](F)P(=O)(O)O)ccc7s6)C(=O)N54)C3)c21` [Example 427, ((S)-fluoro(2-(((3S,6S,7aS,8aR,9aR)-3-(3-(1-methyl-1H-pyrrolo[3,2-c]pyridin-7-yl)azetidine-1-carbonyl)-5-oxodecahydro-1H-cyclopropa[d]pyrrolo[1,2-a]azocin-6-yl)carbamoyl)benzo[b]thiophen-5-yl)methyl)phosphonic acid]: the IC50 was in the range of 100 to 1000 nM in assay [1] and 300 to 3000 nM in assay [2]. Turning to `N#CC1CN(c2ccncc2C2CN(C(=O)[C@@H]3CC[C@@H]4C[C@H]5C[C@H]5C[C@H](NC(=O)c5cc6cc([C@@H](F)P(=O)(O)O)ccc6s5)C(=O)N43)C2)C1` [Example 428, ((S)-(2-(((3S,6S,7aS,8aR,9aR)-3-(3-(4-(3-cyanoazetidin-1-yl)pyridin-3-yl)azetidine-1-carbonyl)-5-oxodecahydro-1H-cyclopropa[d]pyrrolo[1,2-a]azocin-6-yl)carbamoyl)benzo[b]thiophen-5-yl)fluoromethyl)phosphonic acid], the IC50 is less than 100 nM in assay [1] and 3000 to 30000 nM in assay [2]. On the same counts, the results for “((R)-fluoro(2-(((3S,6S,7aS,8aR,9aR)-3-(3-(morpholine-4-carbonyl)azetidine-1-carbonyl)-5-oxodecahydro-1H-cyclopropa[d]pyrrolo[1,2-a]azocin-6-yl)carbamoyl)benzo[b]thiophen-5-yl)methyl)phosphonic acid or ((S)-fluoro(2-(((3S,6S,7aS,8aR,9aR)-3-(3-(morpholine-4-carbonyl)azetidine-1-carbonyl)-5-oxodecahydro-1H-cyclopropa[d]pyrrolo[1,2-a]azocin-6-yl)carbamoyl)benzo[b]thiophen-5-yl)methyl)phosphonic acid [Compound 33]” are less than 100 nM and 3000 to 30000 nM. On to “((S)-fluoro(2-(((3S,6S,7aS,8aR,9aR)-3-(3-(morpholine-4-carbonyl)azetidine-1-carbonyl)-5-oxodecahydro-1H-cyclopropa[d]pyrrolo[1,2-a]azocin-6-yl)carbamoyl)benzo[b]thiophen-5-yl)methyl)phosphonic acid Or ((R)-fluoro(2-(((3S,6S,7aS,8aR,9aR)-3-(3-(morpholine-4-carbonyl)azetidine-1-carbonyl)-5-oxodecahydro-1H-cyclopropa[d]pyrrolo[1,2-a]azocin-6-yl)carbamoyl)benzo[b]thiophen-5-yl)methyl)phosphonic acid [Compound 34]”, for which the IC50 in assay [1] was 100 to 1000 nM; in assay [2], greater than 30000 nM.

For “(difluoro(2-(((3S,6S,7aR,8aS,9aR)-5-ox0-3-(3-(pyridin-2-yl)azetidine-1-carbonyl)decahydro-1H-cyclopropa[d]pyrrolo[1,2-a]azocin-6-yl)carbamoyl)benzo[b]thiophen-5-yl)methyl)phosphonic acid [Compound 106]”, the values for the IC50 in assay [1] and in assay [2] were less than 100 nM and 300 to 3000 nM, respectively. For “(difluoro(2-(((3S,6S,8aR,9aS,9bR)-3-(3-methoxy-3-(1-methyl-1H-imidazol-2-yl)azetidine-1-carbonyl)-8a-methyl-5-oxodecahydro-1H-cyclopropa[c]pyrrolo[1,2-a]azocin-6-yl)carbamoyl)benzo[b]thiophen-5-yl)methyl)phosphonic acid [Example 241]” the same measures were 100 to 1000 nM and 3000 to 30000 nM.
